pIC50: −log10 of the molar value.
Test system: 786-0 complex spheroids with HUVEC/MSC, growth % test/control
Experiment: Anticancer human tumor 786-0 cell line growth inhibition [AhR];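 note: compound exposure lasted seven days before the read-out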
Conditions: for pIC50: curve of first compound; for viability, T/C: stronger effect = lower value; active = viability on the fitted dose curve at most 10% of control; inactive = the rest
How it was run: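 Agents were dosed in half-log steps down from roughly clinical Cmax, or from 10 microM where Cmax was unknown, alone and with AhR antagonists. Read-out: percent test/control growth of tumor spheroids containing HUVEC and MSC stromal cells.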

[1] = second compound 0.1 µM, first compound 0.0316 µM
[2] = second compound 0.1 µM, first compound 0.1 µM
[3] = second compound 0.1 µM, first compound 0.316 µM
[4] = second compound 0.1 µM, first compound 1 µM
[5] = second compound 0.1 µM, first compound 3.16 µM
[6] = second compound 0.1 µM, first compound 10 µM
[7] = second compound 0.316 µM, first compound 0.0316 µM
[8] = second compound 0.316 µM, first compound 0.1 µM
[9] = second compound 0.316 µM, first compound 0.316 µM
[10] = second compound 0.316 µM, first compound 1 µM
[11] = second compound 0.316 µM, first compound 3.16 µM
[12] = second compound 0.316 µM, first compound 10 µM
[13] = second compound 1 µM, first compound 0.0316 µM
[14] = second compound 1 µM, first compound 0.1 µM
[15] = second compound 1 µM, first compound 0.316 µM
[16] = second compound 1 µM, first compound 1 µM
[17] = second compound 1 µM, first compound 3.16 µM
[18] = second compound 1 µM, first compound 10 µM
[19] = second compound 3.16 µM, first compound 0.0316 µM
[20] = second compound 3.16 µM, first compound 0.1 µM
[21] = second compound 3.16 µM, first compound 0.316 µM
[22] = second compound 3.16 µM, first compound 1 µM
[23] = second compound 3.16 µM, first compound 3.16 µM
[24] = second compound 3.16 µM, first compound 10 µM
[25] = second compound 10 µM, first compound 0.0316 µM
[26] = second compound 10 µM, first compound 0.1 µM
[27] = second compound 10 µM, first compound 0.316 µM
[28] = second compound 10 µM, first compound 1 µM
[29] = second compound 10 µM, first compound 3.16 µM
[30] = second compound 10 µM, first compound 10 µM

CC1(C)CCC(CN2CCN(c3ccc(C(=O)NS(=O)(=O)c4ccc(NCC5CCOCC5)c([N+](=O)[O-])c4)c(Oc4cnc5[nH]ccc5c4)c3)CC2)=C(c2ccc(Cl)cc2)C1 + Cc1cncc(-c2nc(NCCc3c[nH]c4ccccc34)c3ncn(C(C)C)c3n2)c1
< 5.00: pIC50 (second compound 0.1 µM) | pIC50 (second compound 0.316 µM) | pIC50 (second compound 1 µM) | pIC50 (second compound 3.16 µM)
inactive: viability, T/C [1] 107% | viability, T/C [2] 123% | viability, T/C [3] 117% | viability, T/C [4] 109% | viability, T/C [5] 113% | viability, T/C [6] 93.3% | viability, T/C [7] 117% | viability, T/C [8] 118% | viability, T/C [9] 119% | viability, T/C [10] 129% | viability, T/C [11] 102% | viability, T/C [12] 93.8% | viability, T/C [13] 118% | viability, T/C [14] 105% | viability, T/C [15] 109% | viability, T/C [16] 103% | viability, T/C [17] 102% | viability, T/C [18] 97.3% | viability, T/C [19] 65.4% | viability, T/C [20] 71.9% | viability, T/C [21] 74.4% | viability, T/C [22] 76.8% | viability, T/C [23] 67.4% | viability, T/C [24] 70.8%
active: viability, T/C [25] 5.05% | viability, T/C [26] 3.29% | viability, T/C [27] 6.81% | viability, T/C [28] 6.55% | viability, T/C [29] 6.02% | viability, T/C [30] 23.1%
> 7.50: pIC50 (second compound 10 µM)

CCN(c1cc(-c2ccc(CN3CCOCC3)cc2)cc(C(=O)NCc2c(C)cc(C)[nH]c2=O)c1C)C1CCOCC1 + Cc1cncc(-c2nc(NCCc3c[nH]c4ccccc34)c3ncn(C(C)C)c3n2)c1
active: viability, T/C (second compound 10 µM, first compound 0.949 µM) 4.25% | viability, T/C (second compound 10 µM, first compound 3 µM) 0.53%
> 8.02: pIC50 (second compound 10 µM)
inactive: viability, T/C (second compound 0.1 µM, first compound 0.00949 µM) 121% | viability, T/C (second compound 0.1 µM, first compound 0.03 µM) 119% | viability, T/C (second compound 0.1 µM, first compound 0.0949 µM) 112% | viability, T/C (second compound 0.1 µM, first compound 0.3 µM) 121% | viability, T/C (second compound 0.1 µM, first compound 0.949 µM) 120% | viability, T/C (second compound 0.1 µM, first compound 3 µM) 131% | viability, T/C (second compound 0.316 µM, first compound 0.00949 µM) 125% | viability, T/C (second compound 0.316 µM, first compound 0.03 µM) 120% | viability, T/C (second compound 0.316 µM, first compound 0.0949 µM) 128% | viability, T/C (second compound 0.316 µM, first compound 0.3 µM) 131% | viability, T/C (second compound 0.316 µM, first compound 0.949 µM) 131% | viability, T/C (second compound 0.316 µM, first compound 3 µM) 138% | viability, T/C (second compound 1 µM, first compound 0.00949 µM) 113% | viability, T/C (second compound 1 µM, first compound 0.03 µM) 118% | viability, T/C (second compound 1 µM, first compound 0.0949 µM) 113% | viability, T/C (second compound 1 µM, first compound 0.3 µM) 114% | viability, T/C (second compound 1 µM, first compound 0.949 µM) 126% | viability, T/C (second compound 1 µM, first compound 3 µM) 127% | viability, T/C (second compound 3.16 µM, first compound 0.00949 µM) 75.8% | viability, T/C (second compound 3.16 µM, first compound 0.03 µM) 73.8% | viability, T/C (second compound 3.16 µM, first compound 0.0949 µM) 79.2% | viability, T/C (second compound 3.16 µM, first compound 0.3 µM) 73.5% | viability, T/C (second compound 3.16 µM, first compound 0.949 µM) 74.4% | viability, T/C (second compound 3.16 µM, first compound 3 µM) 76.9% | viability, T/C (second compound 10 µM, first compound 0.00949 µM) 16% | viability, T/C (second compound 10 µM, first compound 0.03 µM) 14.8% | viability, T/C (second compound 10 µM, first compound 0.0949 µM) 23.9% | viability, T/C (second compound 10 µM, first compound 0.3 µM) 14.8%
< 5.52: pIC50 (second compound 0.1 µM) | pIC50 (second compound 0.316 µM) | pIC50 (second compound 1 µM) | pIC50 (second compound 3.16 µM)

Cn1ncnc1C1c2n[nH]c(=O)c3cc(F)cc(c23)NC1c1ccc(F)cc1 (stereo not given) + Cc1cncc(-c2nc(NCCc3c[nH]c4ccccc34)c3ncn(C(C)C)c3n2)c1
inactive: viability, T/C (second compound 0.1 µM, first compound 0.000316 µM) 122% | viability, T/C (second compound 0.1 µM, first compound 0.001 µM) 120% | viability, T/C (second compound 0.1 µM, first compound 0.00316 µM) 120% | viability, T/C (second compound 0.1 µM, first compound 0.01 µM) 117% | viability, T/C [1] 120% | viability, T/C [2] 115% | viability, T/C (second compound 0.316 µM, first compound 0.000316 µM) 117% | viability, T/C (second compound 0.316 µM, first compound 0.001 µM) 119% | viability, T/C (second compound 0.316 µM, first compound 0.00316 µM) 110% | viability, T/C (second compound 0.316 µM, first compound 0.01 µM) 116% | viability, T/C [7] 111% | viability, T/C [8] 116% | viability, T/C (second compound 1 µM, first compound 0.000316 µM) 112% | viability, T/C (second compound 1 µM, first compound 0.001 µM) 111% | viability, T/C (second compound 1 µM, first compound 0.00316 µM) 118% | viability, T/C (second compound 1 µM, first compound 0.01 µM) 99.7% | viability, T/C [13] 105% | viability, T/C [14] 119% | viability, T/C (second compound 3.16 µM, first compound 0.000316 µM) 76.6% | viability, T/C (second compound 3.16 µM, first compound 0.001 µM) 77.5% | viability, T/C (second compound 3.16 µM, first compound 0.00316 µM) 78.7% | viability, T/C (second compound 3.16 µM, first compound 0.01 µM) 75.8% | viability, T/C [19] 72.8% | viability, T/C [20] 80.4% | viability, T/C (second compound 10 µM, first compound 0.000316 µM) 19.2% | viability, T/C (second compound 10 µM, first compound 0.001 µM) 19.2% | viability, T/C (second compound 10 µM, first compound 0.00316 µM) 18.9% | viability, T/C (second compound 10 µM, first compound 0.01 µM) 17.7% | viability, T/C [25] 17.4% | viability, T/C [26] 21.4%
> 9.50: pIC50 (second compound 10 µM)
< 7.00: pIC50 (second compound 0.1 µM) | pIC50 (second compound 0.316 µM) | pIC50 (second compound 1 µM) | pIC50 (second compound 3.16 µM)

NS(=O)(=O)OCC1CC(n2ccc3c(NC4CCc5ccccc54)ncnc32)CC1O (stereo not given) + Cc1cncc(-c2nc(NCCc3c[nH]c4ccccc34)c3ncn(C(C)C)c3n2)c1
> 7.50: pIC50 (second compound 10 µM)
active: viability, T/C [6] 5.21% | viability, T/C [12] 4.21% | viability, T/C [17] 8.16% | viability, T/C [18] 5.53% | viability, T/C [23] 3.65% | viability, T/C [24] 2.28% | viability, T/C [25] 6.13% | viability, T/C [26] 6.79% | viability, T/C [27] 1.4% | viability, T/C [28] 1.01% | viability, T/C [29] 0.49% | viability, T/C [30] 0.45%
inactive: viability, T/C [1] 96.8% | viability, T/C [2] 84.5% | viability, T/C [3] 74.8% | viability, T/C [4] 35% | viability, T/C [5] 10.5% | viability, T/C [7] 100% | viability, T/C [8] 82.9% | viability, T/C [9] 75.8% | viability, T/C [10] 36% | viability, T/C [11] 8.3% | viability, T/C [13] 103% | viability, T/C [14] 83.6% | viability, T/C [15] 74.2% | viability, T/C [16] 30.7% | viability, T/C [19] 71.9% | viability, T/C [20] 66% | viability, T/C [21] 50.1% | viability, T/C [22] 16.5%
6.51: pIC50 (second compound 3.16 µM)
6.19: pIC50 (second compound 0.1 µM) | pIC50 (second compound 0.316 µM)
6.24: pIC50 (second compound 1 µM)

Source: PubChem BioAssay AID1919003 (Molecular Pharmacology Branch, DTP, NCI, 2023)
